From PubChem BioAssay (NCI)
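Following 48 hours of exposure in 96-well plates, responses at five concentrations were used to interpolate endpoints linearly. The concentration for 50% growth inhibition is given as GI50. TGI: concentration producing complete growth inhibition.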

System: IGROV1 ovarian
Test: DTP human tumour cell line panel, 48 h

Structure (SMILES)	TGI [µM]	GI50 [µM]
CSC1(CC(=O)N(C)C)C(=O)Nc2ccccc21 (configuration not stated)	> 100	
COc1cc(/C=C2\C(=O)Nc3ccc(F)cc32)cc(OC)c1OC	> 100	8.44
C#C[C@]1(O)CC[C@H]2[C@@H]3CC=C4c5sc(Nc6ccccc6)nc5CC[C@]4(C)[C@H]3CC[C@@]21C	5.5	2.06
O=C(O)c1c(-c2nccc3ccccc23)[nH]c(-c2ccccc2)c1S(=O)(=O)O	> 100	
Cc1cn2c(/C=C3/C(=O)Nc4ccccc43)c(-c3ccc(Cl)cc3)nc2s1	19.9	10.2
O=C(CCC/C(CC(=O)c1ccc(Br)cc1)=N\O)Nc1ccccc1	> 100	
Cc1c[n+](Cc2ccc3ccccc3c2)cn1Cc1ccc2ccccc2c1	3.75	1.46
COc1ccccc1NC(=O)C1=C(C)NC(C)=C(C(=O)Nc2ccccc2OC)C1c1ccc([N+](=O)[O-])cc1	> 100	
O=C(CSc1nnc(-c2ccccc2NC(=O)C(F)(F)F)c(=O)[nH]1)NC(=O)Nc1ccccc1	> 100	
CN1CCc2c(Sc3ccc(C(=O)NO)cc3)c3ccccc3n2C1	9.06	2.84
CN(C)c1ccc2nc3ccc(=O)cc-3sc2c1	> 54.5	2.48
CC(=O)c1c(CBr)n([O-])c2ccccc2[n+]1=O	29.2	13.6
C#CC(=O)Nc1cccc(Nc2nc3c(c(NCc4ccccc4)n2)CCCC3)c1	0.0598	< 0.01
COc1ccc(C(=O)C(CO)Oc2ccccc2OC)cc1OC (configuration not stated)	> 100	
CC(C)(C)C(=O)/C=C/c1ccc(Oc2ccccc2)cc1	> 100	
CN=NN(C)C(=O)NC	> 100	
N#CC1Nc2ccccc2[C@@H](O)C1O (some centres not stated)	> 100	
CC(C)c1ccccc1S(=O)c1ccccc1C(C)(C)O (configuration not stated)	> 100	
Cc1c(C2Nc3ccccc3C2C)[nH]c2ccccc12 (configuration not stated)	27.3	2.96
COc1cc(NC(C)CCCN)c2nccc(C)c2c1OC (configuration not stated)	22.7	4.01
O=C(CN1CCCCC1)N1CCc2c([nH]c3ccccc23)C1c1cccnc1 (configuration not stated)	> 100	
O=C(O)c1cccc(OCCO)c1	> 100	
COc1ccc(C2C(C#N)=C(N)OC3=C2COc2ccc(F)cc23)cc1OC (configuration not stated)	> 100	28.7
O=C1CSC(Cc2nc3ccccc3[nH]2)=N1	> 58.7	
O=C(Nc1cccc(Cl)c1Cl)c1cccc(NC2=C(Cl)C(=O)N(Cc3ccccc3)C2=O)c1	59.6	11.7
O=C(/C=C/c1ccccc1)/C=C/c1ccccc1	66.5	
CCOC(=O)C1=C(C)N(N)C(=S)NC1c1ccc(C)cc1 (configuration not stated)	> 100	28.2
N#CC(C#N)=c1[nH]c2cccc3c2-c2c(cccc2c3=C(C#N)C#N)[nH]1	> 100	

System: NCI-H226 lung
Test: DTP human tumour cell line panel, 48 h

Structure (SMILES)	TGI [µM]	GI50 [µM]
N#CC1(C2SCCS2=O)C2=C(C(=O)c3ccccc3C2=O)N2CCCC21 (configuration not stated)	10.7	
Cc1n(Cc2ccc3ccccc3c2)cc[n+]1Cc1ccc2ccccc2c1	10.4	1.85
O=C(O)Cc1c(O)ccc2ccccc12	> 100	
CSC1(CC(=O)N(C)C)C(=O)Nc2ccccc21 (configuration not stated)	> 100	
COc1cc(/C=C2\C(=O)Nc3ccc(F)cc32)cc(OC)c1OC	> 100	23.7
C#C[C@]1(O)CC[C@H]2[C@@H]3CC=C4c5sc(Nc6ccccc6)nc5CC[C@]4(C)[C@H]3CC[C@@]21C	7.59	2.55
O=C(O)c1c(-c2nccc3ccccc23)[nH]c(-c2ccccc2)c1S(=O)(=O)O	> 100	
Cc1cn2c(/C=C3/C(=O)Nc4ccccc43)c(-c3ccc(Cl)cc3)nc2s1	21.3	7.04
O=C(CCC/C(CC(=O)c1ccc(Br)cc1)=N\O)Nc1ccccc1	> 100	
Cc1c[n+](Cc2ccc3ccccc3c2)cn1Cc1ccc2ccccc2c1	5.87	2.12
COc1ccccc1NC(=O)C1=C(C)NC(C)=C(C(=O)Nc2ccccc2OC)C1c1ccc([N+](=O)[O-])cc1	> 100	
O=C(CSc1nnc(-c2ccccc2NC(=O)C(F)(F)F)c(=O)[nH]1)NC(=O)Nc1ccccc1	> 100	
CN1CCc2c(Sc3ccc(C(=O)NO)cc3)c3ccccc3n2C1	14.9	2.75
CN(C)c1ccc2nc3ccc(=O)cc-3sc2c1	> 85.1	7.59
CC(=O)c1c(CBr)n([O-])c2ccccc2[n+]1=O	28	13.4
C#CC(=O)Nc1cccc(Nc2nc3c(c(NCc4ccccc4)n2)CCCC3)c1	0.551	0.147
CC(C)(C)C(=O)/C=C/c1ccc(Oc2ccccc2)cc1	36.2	
c1ccc2c3ccn4cc5c(cc4c-3nc2c1)CCCC5	10.2	3.3
CC(C)c1ccccc1S(=O)c1ccccc1C(C)(C)O (configuration not stated)	41.8	
Cc1c(C2Nc3ccccc3C2C)[nH]c2ccccc12 (configuration not stated)	31.3	10.9
COc1cc(NC(C)CCCN)c2nccc(C)c2c1OC (configuration not stated)	43	18.8
COc1cc2cn3c4ccc(O)cc4[nH]c(=O)c3c2cc1OC	16.8	0.0374
O=C(O)c1cccc(OCCO)c1	> 100	
COc1ccc(C2C(C#N)=C(N)OC3=C2COc2ccc(F)cc23)cc1OC (configuration not stated)	51.1	13.9
O=C1CSC(Cc2nc3ccccc3[nH]2)=N1	28.3	
O=C(Nc1cccc(Cl)c1Cl)c1cccc(NC2=C(Cl)C(=O)N(Cc3ccccc3)C2=O)c1	> 100	31.7
O=C(/C=C/c1ccccc1)/C=C/c1ccccc1	> 100	
CCOC(=O)C1=C(C)N(N)C(=S)NC1c1ccc(C)cc1 (configuration not stated)	> 100	33.8
N#CC(C#N)=c1[nH]c2cccc3c2-c2c(cccc2c3=C(C#N)C#N)[nH]1	> 100	

System: NCI-H460 lung
Test: DTP human tumour cell line panel, 48 h

Structure (SMILES)	TGI [µM]	GI50 [µM]
N#CC1(C2SCCS2=O)C2=C(C(=O)c3ccccc3C2=O)N2CCCC21 (configuration not stated)	11.8	
CC(=O)Oc1ccccc1C(=O)N=C1[Se]CCN1C(=O)c1ccccc1OC(C)=O	2.06	0.379
O=S(O)CCCCSSCc1ccccc1CSSCCCCS(=O)O	> 100	
Cc1n(Cc2ccc3ccccc3c2)cc[n+]1Cc1ccc2ccccc2c1	10.7	1.59
O=C(O)Cc1c(O)ccc2ccccc12	> 100	
CSC1(CC(=O)N(C)C)C(=O)Nc2ccccc21 (configuration not stated)	> 100	
COc1cc(/C=C2\C(=O)Nc3ccc(F)cc32)cc(OC)c1OC	> 100	19.6
C#C[C@]1(O)CC[C@H]2[C@@H]3CC=C4c5sc(Nc6ccccc6)nc5CC[C@]4(C)[C@H]3CC[C@@]21C	6.4	2.4
O=C(O)c1c(-c2nccc3ccccc23)[nH]c(-c2ccccc2)c1S(=O)(=O)O	> 100	
Cc1cn2c(/C=C3/C(=O)Nc4ccccc43)c(-c3ccc(Cl)cc3)nc2s1	22.1	8.14
O=C(CCC/C(CC(=O)c1ccc(Br)cc1)=N\O)Nc1ccccc1	> 100	
Cc1c[n+](Cc2ccc3ccccc3c2)cn1Cc1ccc2ccccc2c1	3.65	1.72
COc1ccccc1NC(=O)C1=C(C)NC(C)=C(C(=O)Nc2ccccc2OC)C1c1ccc([N+](=O)[O-])cc1	> 100	
O=C(CSc1nnc(-c2ccccc2NC(=O)C(F)(F)F)c(=O)[nH]1)NC(=O)Nc1ccccc1	> 100	
CN1CCc2c(Sc3ccc(C(=O)NO)cc3)c3ccccc3n2C1	7.73	2.34
CN(C)c1ccc2nc3ccc(=O)cc-3sc2c1	15.7	1.55
COc1ccc(C(=O)C(CO)Oc2ccccc2OC)cc1OC (configuration not stated)	> 100	
CC(C)(C)C(=O)/C=C/c1ccc(Oc2ccccc2)cc1	43.9	
CN=NN(C)C(=O)NC	> 100	
c1ccc2c3ccn4cc5c(cc4c-3nc2c1)CCCC5	3.85	1.69
N#CC1Nc2ccccc2[C@@H](O)C1O (some centres not stated)	> 100	
CC(C)c1ccccc1S(=O)c1ccccc1C(C)(C)O (configuration not stated)	> 100	
